The source of these data is ChEMBL document CHEMBL5550113, “Bioisoteres for carboxylic acids: From ionized isosteres to novel unionized replacements” (Bioorg Med Chem, 2024).

A short description of series [1]: Toxicity in po dosed Guinea pig assessed as effective dose. Format: organism-based, Cavia porcellus. The conditions noted are these: in vivo.
Another series is filed under the species Cavia porcellus. Briefly: Binding affinity to Guinea pig Leukotriene receptor. As to conditions: filed as antagonist.
A further series concerns the target CDK12/Cyclin K (Homo sapiens, UniProt Q9NYV4). Description: Inhibition of 6His-tagged wild type CDK12/cyclin K (unknown origin) infected in insect cells incubated for 1 hr by TR-FRET assay. Background: Time-resolved FRET reads energy transfer from a long-lived donor to a nearby acceptor.

Chain of CDK12/Cyclin K (O75909 whole entry): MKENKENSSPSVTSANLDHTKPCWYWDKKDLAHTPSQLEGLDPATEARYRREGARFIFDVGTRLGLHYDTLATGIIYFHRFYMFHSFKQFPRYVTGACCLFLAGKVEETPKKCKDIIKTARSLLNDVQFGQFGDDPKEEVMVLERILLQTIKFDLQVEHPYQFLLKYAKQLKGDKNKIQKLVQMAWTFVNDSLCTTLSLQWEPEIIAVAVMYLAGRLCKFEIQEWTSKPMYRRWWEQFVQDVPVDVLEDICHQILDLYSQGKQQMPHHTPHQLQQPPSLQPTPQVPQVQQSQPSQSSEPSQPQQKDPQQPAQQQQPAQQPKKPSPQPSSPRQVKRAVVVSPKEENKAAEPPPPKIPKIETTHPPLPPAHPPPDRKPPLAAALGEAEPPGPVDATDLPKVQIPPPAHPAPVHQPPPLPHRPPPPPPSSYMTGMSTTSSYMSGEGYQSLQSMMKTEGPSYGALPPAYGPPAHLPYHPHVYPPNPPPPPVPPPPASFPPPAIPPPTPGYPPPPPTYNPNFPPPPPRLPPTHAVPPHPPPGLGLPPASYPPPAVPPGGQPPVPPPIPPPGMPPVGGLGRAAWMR
Chain of CDK12/Cyclin K (Q9NYV4 whole entry): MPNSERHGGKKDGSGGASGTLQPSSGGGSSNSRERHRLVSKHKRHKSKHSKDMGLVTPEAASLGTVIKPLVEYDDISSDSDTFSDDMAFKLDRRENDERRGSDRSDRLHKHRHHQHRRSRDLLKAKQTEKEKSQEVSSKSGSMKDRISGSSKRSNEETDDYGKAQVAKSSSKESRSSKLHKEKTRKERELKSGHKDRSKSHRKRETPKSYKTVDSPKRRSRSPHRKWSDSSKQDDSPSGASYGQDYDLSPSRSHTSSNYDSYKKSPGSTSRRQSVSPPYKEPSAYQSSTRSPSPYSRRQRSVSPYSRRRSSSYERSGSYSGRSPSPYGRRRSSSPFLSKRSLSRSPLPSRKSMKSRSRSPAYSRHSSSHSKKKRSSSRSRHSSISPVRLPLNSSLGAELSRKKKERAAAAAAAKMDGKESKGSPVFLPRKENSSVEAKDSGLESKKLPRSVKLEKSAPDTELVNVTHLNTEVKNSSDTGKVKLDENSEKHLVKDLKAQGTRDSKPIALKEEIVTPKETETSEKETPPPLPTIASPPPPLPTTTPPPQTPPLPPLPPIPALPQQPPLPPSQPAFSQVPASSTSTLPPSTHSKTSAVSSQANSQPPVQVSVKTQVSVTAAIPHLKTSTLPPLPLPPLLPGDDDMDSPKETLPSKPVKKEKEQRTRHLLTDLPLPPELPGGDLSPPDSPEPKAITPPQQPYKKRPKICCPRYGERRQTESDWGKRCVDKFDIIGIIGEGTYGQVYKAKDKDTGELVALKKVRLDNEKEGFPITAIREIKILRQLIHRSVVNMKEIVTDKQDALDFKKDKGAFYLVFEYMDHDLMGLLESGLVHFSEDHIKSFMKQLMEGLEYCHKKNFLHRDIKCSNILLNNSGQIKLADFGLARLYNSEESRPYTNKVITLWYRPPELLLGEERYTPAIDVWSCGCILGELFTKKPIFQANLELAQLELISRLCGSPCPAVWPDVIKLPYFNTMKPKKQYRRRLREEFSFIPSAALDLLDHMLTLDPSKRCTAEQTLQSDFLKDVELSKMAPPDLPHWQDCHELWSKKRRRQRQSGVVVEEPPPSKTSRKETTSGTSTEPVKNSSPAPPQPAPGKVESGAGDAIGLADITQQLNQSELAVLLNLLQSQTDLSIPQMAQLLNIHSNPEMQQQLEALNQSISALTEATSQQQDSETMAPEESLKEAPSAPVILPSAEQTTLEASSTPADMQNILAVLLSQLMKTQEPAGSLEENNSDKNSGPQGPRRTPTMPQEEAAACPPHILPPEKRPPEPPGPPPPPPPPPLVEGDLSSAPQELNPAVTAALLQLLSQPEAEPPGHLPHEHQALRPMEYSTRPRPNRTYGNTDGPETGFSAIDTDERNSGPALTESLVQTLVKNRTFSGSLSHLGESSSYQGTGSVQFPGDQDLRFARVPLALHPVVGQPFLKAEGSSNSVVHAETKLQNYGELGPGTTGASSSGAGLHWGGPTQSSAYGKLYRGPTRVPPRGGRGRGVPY

In the case of `COc1cc(C(=O)NS(=O)(=O)c2ccccc2C)ccc1Cc1cn(C)c2ccc(NC(=O)OC3CCCC3)cc12` [ZAFIRLUKAST], the ED50 (in general, the midpoint of the dose-response relation) in series [1] is 0.3 mg/kg.
Turning to `COc1cc(C(=O)NS(=O)(=O)c2ccccc2)ccc1Cc1cn(C)c2ccc(NC(=O)OC3CCCC3)cc12`, the ED50 in series [1] worked out at 2.5 mg/kg. In addition, in the series listed under Cavia porcellus, the pKb – broadly, the Kb on a negative log10 scale, so that one unit is a factor of ten – came to 9.69.
As for `CC[C@H](CO)Nc1nc(NCCCc2ccco2)c2ncn(C(C)C)c2n1`, at CDK12/Cyclin K, the EC50 (commonly the concentration needed to bring the measured effect to its halfway point) was determined as 603 nM.
Same read-out and setting: under `CC[C@H](CO)Nc1nc(NCc2ccc(-c3ccccc3)cc2)c2ncn(C(C)C)c2n1` stands 17 nM.
Regarding `CC[C@H](CO)Nc1nc(NCCCc2ccc(Cl)c(Cl)c2)c2ncn(C(C)C)c2n1`, the EC50 on CDK12/Cyclin K came to 21 nM. This EC50 and that of the compound before are within 1.5-fold of each other.
The same measure, in the same setting: under `CC[C@H](CO)Nc1nc(NCCCc2cccc(C)n2)c2ncn(C(C)C)c2n1` stands 36 nM.
The same measure, in the same setting: next, `CC[C@H](CO)Nc1nc(NCCCc2ccc(C)c(C)c2)c2ncn(C(C)C)c2n1`: 18 nM; `CC[C@H](CO)Nc1nc(NCc2ccc(-c3ccccn3)c(=O)[nH]2)c2ncn(C(C)C)c2n1`: 21 nM; `CC[C@H](CO)Nc1nc(NCc2ccc(-c3ccccn3)c(F)c2)c2ncn(C(C)C)c2n1`: 78 nM.
On the same count and under the same terms, next, `CC[C@H](CO)Nc1nc(NCCCc2ccnn2C)c2ncn(C(C)C)c2n1`: 246 nM.
With `CC[C@H](CO)Nc1nc(NCc2ccc3ccccc3c2)c2ncn(C(C)C)c2n1`, the EC50 on CDK12/Cyclin K turned out to be 60 nM.
The same measure, in the same setting: next, `CC[C@H](CO)Nc1nc(NCc2nc3ccc(F)c(F)c3[nH]2)c2ncn(C(C)C)c2n1`: 41 nM; `CC[C@H](CO)Nc1nc(NCCCc2ccccc2)c2ncn(C(C)C)c2n1`: 57 nM.
On the same count and under the same terms, next, `CC[C@H](CO)Nc1nc(NCCCc2cccc(C)c2)c2ncn(C(C)C)c2n1`: 35 nM; `CC[C@H](CO)Nc1nc(NCc2ccn(-c3cccc(Cl)c3)n2)c2ncn(C(C)C)c2n1`: 44 nM; `CC[C@H](CO)Nc1nc(NCCCc2cccc(F)c2)c2ncn(C(C)C)c2n1`: 46 nM.
Still for that read-out and setting: under `CC[C@H](CO)Nc1nc(NCc2ccc(-c3ccncc3)nc2)c2ncn(C(C)C)c2n1` stands 28 nM; under `CC[C@H](CO)Nc1nc(NCCCCCc2cccc3ccccc23)c2ncn(C(C)C)c2n1`, 182 nM.
`CC[C@H](CO)Nc1nc(NCc2ccc(-c3ccc(C)s3)cc2)c2ncn(C(C)C)c2n1` had an EC50 at CDK12/Cyclin K of 15 nM. This EC50 lies about 12-fold lower than the previous one.
On to `CC[C@H](CO)Nc1nc(NCc2ccc(-c3ccncc3)cc2)c2ncn(C(C)C)c2n1`, for which it took 36 nM to reach a half-maximal effect at CDK12/Cyclin K (EC50).
